Reference: patent US20230050202A1, “ENGINEERED FIBROBLASTS AS CELL THERAPY TO TREAT CANCER VIA TUMOR STROMA STABILIZATION” (The Johns Hopkins University, priority 2020, published 2023)

Legend:
[1] = Rheological measurement (LAOS) of crosslinked collagen gel; assay type: physicochemical
Experimental: ECM crosslinking. ECM-encapsulated 67NR spheroids were prepared as previously described. After 1-hour incubation, genipin (Sigma-Aldrich, G4796) was mixed with DMEM to reach final concertation of 0.5 mM and 1 mM. The solutions were then added to the samples and incubated for 24 hours. The DMSO-added DMEM were used as a control for the experiment. The samples were then washed with PBS for further usage. Elastic modulus measurement. The Large […] Oscillatory Shear (LAOS) was used to test the shear modulus of the crosslinked and uncrosslinked collagen gel. The collagen gel was prepared in disks and subjected to sinusoidal rotational deformation. The amplitude of the applied strain (y) to the material was increased at a fixed rotational frequency (w) of 1 rad/s. The analysis utilized a viscoelastic stress response model wherein the shear stress is computed as a function of strain ranging from 0.01%-15%. The Fourier Transform method was utilized to quantify the nonlinear stress response of ECM samples under increasingly large angular shear strain. LAOS was performed using an Anton Paar Modular Compact Rheometer (MCR 302) with a parallel plate (diameter 8 mm) at 37° C. The measurement values of the shear modulus were then used obtain the elastic modulus by the formula: E=2G(1+v) where E is elastic modulus, G is shear modulus, and v is the Poisson ratio. The Poisson ratio was assumed to be 0.5.

[2] = system: FSP1 expression in NIH-3T3 fibroblasts; experiment: FSP1 immunofluorescence in fibroblasts, 67NR spheroid coculture; assay type: cell-based, mouse
Experimental: (§1) Spheroid encapsulation with fibroblasts: for coculture, 40 μL collagen was used to re-suspend 2×10^5 NIH-3T3 cells after centrifugation. The fibroblasts-containing liquid collagen was then added to the glass bottom well where a spheroid was placed in its center. The mixture was allowed to gel at room temperature for 2 hours. 2 mL DMEM was then added into the well. The embedded spheroid was incubated for at least 1 day or longer, as indicated in the text, before being used.
(§2) ECM crosslinking. ECM-encapsulated 67NR spheroids were prepared as previously described. After 1-hour incubation, genipin (Sigma-Aldrich, G4796) was mixed with DMEM to reach final concertation of 0.5 mM and 1 mM. The solutions were then added to the samples and incubated for 24 hours. The DMSO-added DMEM were used as a control for the experiment. The samples were then washed with PBS for further usage.
(§3) Immunofluorescence. Samples were fixed in 4% paraformaldehyde for 30 minutes, permeabilized with 0.1% Triton X100 (Sigma-Aldrich, X100) in PBS for 30 minutes. PBS containing 2% bovine serum albumin (Sigma-Aldrich, A7906) and 0.1% Tween-20 (Promega) was then added to sample for 30 minutes for blocking. All antibody was diluted in PBS with 1% bovine serum albumin. The fixed cells were incubated with the primary antibody for overnight at 4° C., followed by washing using PBS for 3 times, and then incubated with the secondary antibody for 2 hours. After washing, the samples were immersed in PBS and stored in 4° C. for further usage. […]
(§4) Fibril coherence analysis was performed using Quantitative orientation measurement in orientationJ21. The immunostaining was quantified using Fiji/ImageJ software. […]
(§5) where II and AI denotes the fluorescence intensity, and the area of the cell, respectively. I2 and A2 denotes the fluorescence intensity, and the area of the larger region encompassing the cell and the surrounding background, respectively. […] The corrected fluorescence intensity was then recorded for each cell.

[3] = system: αSMA expression in NIH-3T3 fibroblasts; experiment: αSMA immunofluorescence in fibroblasts, 67NR spheroid coculture; assay type: cell-based, mouse
Experimental: as §1, §2, §3, §4, §5

67NR-embedded ECM [4] = experiment: ECM fibril alignment (coherence analysis) in 67NR spheroid-embedded ECM; assay type: cell-based, mouse; details: 0.5 mM genipin, 24 hours, vs control
Experimental: Spheroid encapsulation without fibroblast: after the spheroid adhered to the glass bottom well via collagen, the liquid collagen kept at the 4° C. was poured to the well to embed the spheroid. 40 μL liquid collagen was slowly pipetted into the well and allowed to gel for 2 hours at room temperature. 2 mL DMEM was then added into the well. The embedded spheroid was incubated for at least 1 day or longer before being used.
as §2, §4
To determine whether 67NR spheroid alone is sufficient to align the fibrils, time-lapse imaging was performed by embedding EpH4-Ev and 67NR spheroids in ECM without fibroblasts. […] To quantify the degree of fibril alignment, coherence analysis 21 was performed. […] Fibril orientations within and outside the 300-μm perimeter from the spheroid were evaluated separately.

67NR-embedded ECM [5] = experiment: Line FRAP diffusion enhancement time in spheroid-embedded ECM; assay type: cell-based, mouse; details: 0.5 mM genipin-treated 67NR-embedded ECM, 2,000 kDa FITC-dextran
Experimental: ECM crosslinking. ECM-encapsulated 67NR spheroids were prepared as previously described. After 1-hour incubation, genipin (Sigma-Aldrich, G4796) was mixed with DMEM to reach final concertation of 0.5 mM and 1 mM. The solutions were then added to the samples and incubated for 24 hours. The DMSO-added DMEM were used as a control for the experiment. The samples were then washed with PBS for further usage. Fluorescence recovery after photobleaching. 10 mg/mL of 2,000 kDa fluorescein isothiocyanate (FITC)-Dextran (SigmaAldrich, FD2000S) was added to the collagen gel and incubated for 30 minutes at 37° C. […] The characteristic fluorescence recovery times τD, when 64% of the fluorescence intensity is recovered, was calculated based on the fitted curve. […] Line fluorescence recovery was performed after photobleaching (FRAP) to measure the diffusivity of the spheroid-embedded ECM. […] To assess whether there is enhancement in diffusion rates in the radial direction from the spheroid, the metric “diffusion enhancement time (τDE)” was introduced, defined as the difference in the characteristic fluorescence recovery times τD, when 64% of the fluorescence intensity is recovered, between the two stripes: […]) where rD(radial) represents the rD measured in the radial direction, and rD(orthogonal) in the corresponding orthogonal direction. […]

67NR spheroids = experiment: Cytotoxicity in genipin-treated 67NR-embedded ECM; assay type: cell-based, mouse; details: 0.5 mM genipin, 24 hours
Experimental: as §2
The corollary to the observation that ECM fibril alignment promotes CAF induction in the coculture is that suppressing such alignment will attenuate it. To confirm this, genipin, a biocompatible crosslinking reagent, was used to suppress the fibril reorganization. The optimal genipin concentration was identified to be 0.5 mM. […] Yet the fibril alignment was suppressed by 28% (FIGS. 5A-5B). […] Though ECM crosslinking might lead to CAF induction because of ECM stiffening, it was not the case in these experiments. […] Having had established the optimal genipin concentration to suppress fibril alignment, it was used to evaluate whether CAF induction in cocultured fibroblasts would be attenuated. […] To exclude the possibility that genipin directly downregulates CAF markers in fibroblasts, their expression was evaluated in genipin-treated samples containing fibroblasts only.

[6] = system: αSMA expression in human lung fibroblasts (MRCS); experiment: TGFβ1-mediated CAF induction (αSMA expression) in human lung fibroblasts; assay type: cell-based; details: control fibroblasts, TGFβ1 10 ng/mL, vs non-treated group, p<0.001
Excerpt: Prototype STAR fibroblasts were generated by introducing the dominant negative form of RhoA (RhoA^T19N) into to human lung fibroblasts (MRCS) to reduce RhoA signaling, a key mediator for CAF phenotypes.

[7] = fibroblast-only samples after genipin treatment
[8] = genipin-treated cocultures, fibroblasts outside 300-μm perimeter, treatment vs control
[9] = genipin-treated cocultures, fibroblasts within the 300-μm perimeter from the spheroid

Row | ECM stiffening ([1]; 0.5 mM genipin, 24 hours) | shear moduli vs uncrosslinked control ([1]; 0.5 mM genipin-treated ECM) | elastic modulus of the ECM (mean±s.d.) ([1]; ECM treated with 0.5 mM genipin) [Pa] | ECM became stiffer ([1]; ECM treated with 1 mM genipin vs un-crosslinked ECM) [%] | Compound | FSP1 expression [2, 7] | FSP1 expression decreased [2, 8] [%] | FSP1 expression reduced [2, 9] [%] | αSMA expression [3, 7] | αSMA expression decreased [3, 8] [%] | αSMA expression reduced [3, 9] [%] | fibril alignment suppressed (67NR-embedded ECM [4]) [%] | rDE value (diffusion enhancement time) (67NR-embedded ECM [5]) | cytotoxicity (67NR spheroids) | αSMA expression increase [6] [%]
1 | negligible ECM stiffening | comparable | 755±163 | 29 | COC(=O)C1=CO[C@@H](O)[C@@H]2C(CO)=CC[C@H]12 [genipin] | remained unchanged | 36 | 23 | remained unchanged | 39 | 33 | 28 | decreased to a negligible level | no observable cytotoxicity | 
2 |  |  |  |  | TGFβ1: cytokine used at 10 ng/mL to induce CAF phenotype in fibroblasts |  |  |  |  |  |  |  |  |  | 50
